This passage reports IC50 and inhibition results from paper PMC12199309, “Isolation, structural elucidation, and integrated biological and computational evaluation of antidiabetic labdane diterpenes from Curcuma zedoaria rhizomes” (RSC Advances, 2025).

Test [1] concerns the target T1, α-Glucosidase (EC 3.2.1.20) (Saccharomyces cerevisiae, UniProt P53341).
T1 construct: purchased Sigma Chemical Co. (St. Louis, MO, USA)
Kind of test: biochemical. The settings on record: for inhibition at 10 µM / inhibition at 25 µM / inhibition at 50 µM / inhibition at 100 µM / inhibition at 1 µM / inhibition at 2.5 µM / inhibition at 5 µM: read-out: Inhibition rate (%). As to the method:
Five isolated compounds were examined to assess their inhibitory effect on α-glucosidase at concentrations ranging from 1 to 100 μM. […]
Optical values were conducted on a Shimadzu UV-1800 spectrophotometer (Shimadzu Pte., Ltd, Singapore). IR spectra were measured with a Shimadzu IR-408 infrared spectrometer (Shimadzu Pte., Ltd, Singapore). NMR spectra were acquired on a Bruker Avance III 500 spectrometer Bruker BioSpin AG, Bangkok, (Thailand), with chemical shifts (δ) referenced to deuterated solvents. HR-ESI-MS data were obtained on Bruker micrOTOFQII mass spectrometer (Bruker Singapore Pte., Ltd, Singapore). Column chromatography utilized silica gel 60 (0.06–0.2 mm; Scharlau, Barcelona, Spain) and LiChroprep RP-18 (40–63 μm; Merck KGaA, Darmstadt, Germany). Thin-layer chromatography (TLC) employed Kieselgel 60 F254 or RP-18 F254 plates from Merck KGaA (Darmstadt, Germany). α-Glucosidase (EC 3.2.1.20), derived from Saccharomyces cerevisiae (750 UN), along with p-nitrophenyl-α-D-glucopyranoside, was procured from Sigma Chemical Co. (St. Louis, MO, USA). […] All other chemicals and solvents were of the highest purity or analytical grade.
The inhibitory activity of α-glucosidase was assessed using a modified method based on Kurihara et al.[37] The reaction was initiated by adding 50 μL of 1.5 mM p-nitrophenyl-α-D-glucopyranoside and 50 μL of 0.1 U mL^−1 α-glucosidase in 0.01 M phosphate buffer (pH 7.0) to 625 μL of sample solution. The reaction was conducted at 37 °C for 30 minutes and terminated with 0.1 M Na2CO3. Enzymatic activity was quantified by measuring absorbance at a wavelength of 401 nm. One unit of α-glucosidase activity was defined as the amount of enzyme that liberates […] p-nitrophenol per minute. The IC50 value represented the inhibitor concentration that suppressed 50% of enzyme activity.

The target in test [2] is T1, α-Glucosidase (EC 3.2.1.20). Description: biochemical. The note with it: read-out: Inhibition rate (%).
[3] abbreviates: α-glucosidase inhibition, 37 °C, 30 minutes, pH 7.0, read-out: IC50.

SMILES strings stand for the structures. Read-outs that look alike come from different tables or passages of the source.

T1 sequence (P53341 whole entry): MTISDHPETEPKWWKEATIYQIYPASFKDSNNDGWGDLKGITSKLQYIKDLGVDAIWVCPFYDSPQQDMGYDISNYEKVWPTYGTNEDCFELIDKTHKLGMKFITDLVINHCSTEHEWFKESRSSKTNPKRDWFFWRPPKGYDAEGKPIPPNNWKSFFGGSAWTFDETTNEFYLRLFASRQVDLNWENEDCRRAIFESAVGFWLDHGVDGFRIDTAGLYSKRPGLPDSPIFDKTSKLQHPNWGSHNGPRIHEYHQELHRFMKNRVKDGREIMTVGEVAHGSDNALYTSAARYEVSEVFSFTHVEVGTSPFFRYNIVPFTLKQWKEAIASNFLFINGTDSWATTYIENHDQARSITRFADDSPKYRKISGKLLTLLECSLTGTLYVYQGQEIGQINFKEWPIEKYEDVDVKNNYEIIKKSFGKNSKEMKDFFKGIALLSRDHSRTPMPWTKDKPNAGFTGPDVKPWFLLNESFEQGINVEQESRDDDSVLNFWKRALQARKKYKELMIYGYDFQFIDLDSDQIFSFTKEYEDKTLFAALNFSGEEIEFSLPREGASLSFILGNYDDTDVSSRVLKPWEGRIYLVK

Broadly, the IC50 is the concentration that inhibits the measured activity by half. As a reminder, the inhibition is the percentage by which the read-out fell short of the control. As for `C=C1CCC2C(C)(C)CCCC2(C)C1CC=C(COC(C)=O)C(=O)O` (centres unmarked) [CZ1, zedolabdin A], in test [1], the half-inhibitory concentration (IC50) stood at 14.1 µM, the inhibition at 10 µM worked out at 29.5 ± 1.8%, the inhibition at 25 µM was 81.4 ± 0.5% and the inhibition at 50 µM is 96.2 ± 0.4%. The inhibition at 100 µM in test [1] is 98.8 ± 0.4%.

Turning to `C=C1CCC2C(C)(C)CCCC2(C)C1CC=C(CO)C(=O)O` (centres unmarked) [CZ2, (E)-14-hydroxy-15-norlabda-8(17),12-dien-16-oic acid], in test [1], inhibition was half-maximal at 25.5 µM (IC50), the inhibition at 10 µM stood at 24.6 ± 4.1%, the inhibition at 25 µM came to 46.3 ± 3.1% and the inhibition at 50 µM is 72.4 ± 2%. Also, the inhibition at 100 µM in test [1] amounted to 99.1 ± 2%.

As to `C=C1CC[C@H]2C(C)(C)CCC[C@]2(C)[C@H]1/C=C/C1=C(O)COC1=O` [CZ3, zerumin], in test [1], the inhibition at 1 µM was determined as 6.9 ± 4%, the inhibition at 2.5 µM amounted to 20.8 ± 3.6%, the inhibition at 5 µM was determined as 35.2 ± 1.9% and the inhibition at 10 µM was found to be 73.4 ± 2.3%. The IC50 in test [1] (setting [3]) came out at 6.2 µM.

Regarding `C=C1CC[C@H]2C(C)(C)CCC[C@]2(C)[C@H]1CCC1=CC(O)OC1=O` (some centres unmarked) [CZ4, coronarin C], in test [1], the inhibition at 1 µM was 13.7 ± 5.4%, the inhibition at 2.5 µM came to 34 ± 0.9%, the inhibition at 5 µM was 81 ± 1.7% and the inhibition at 10 µM came to 95.4 ± 1.5%. Besides, in test [1] (setting [3]), the IC50 came out at 3 µM.

For `C=C1CCC2C(C)(C)CCCC2(C)C1C=CC(=O)O` (centres unmarked) [CZ5, (E)-14,15,16-trinorlabda-8(17),11-dien-13-oic acid], in test [1], the IC50 is 37.6 µM, the inhibition at 10 µM was 3.5 ± 3.6%, the inhibition at 25 µM is 16.6 ± 3.8% and the inhibition at 50 µM was found to be 75.8 ± 4.4%. For the same molecule, the inhibition at 100 µM in test [1] came to 99.8 ± 0.2%.

For `C[C@H]1O[C@H](O[C@H]2[C@H](O)[C@@H](O)[C@@H](O[C@H]3[C@H](O)[C@@H](O)C(O)O[C@@H]3CO)O[C@@H]2CO)[C@H](O)[C@@H](O)[C@@H]1N[C@H]1C=C(CO)[C@@H](O)[C@H](O)[C@H]1O` (some centres unmarked) [PC, acarbose, reference compound], in test [1], the inhibition at 25 µM was 8.6 ± 1.1%, the inhibition at 50 µM came to 19.7 ± 1.3% and the inhibition at 100 µM stood at 32.1 ± 1.7%. In addition, the inhibition at 250 µM in test [2] came to 66 ± 1.2%.
